We go through 3 compounds from patent US20180021360A1, “Combination Therapy Regimen For Treatment Of Selected HCV Genotypes” (JANSSEN PHARMACEUTICALS, INC., priority 2016, published 2018).

One data set has as its system HCV genotype 3. Put plainly: activity against genotype 3 in vitro. Further details: species or system hepatitis C virus.
Another data set concerns the target T1, BCRP (Homo sapiens, UniProt Q9UNQ0).
T1 sequence (Q9UNQ0 1-655): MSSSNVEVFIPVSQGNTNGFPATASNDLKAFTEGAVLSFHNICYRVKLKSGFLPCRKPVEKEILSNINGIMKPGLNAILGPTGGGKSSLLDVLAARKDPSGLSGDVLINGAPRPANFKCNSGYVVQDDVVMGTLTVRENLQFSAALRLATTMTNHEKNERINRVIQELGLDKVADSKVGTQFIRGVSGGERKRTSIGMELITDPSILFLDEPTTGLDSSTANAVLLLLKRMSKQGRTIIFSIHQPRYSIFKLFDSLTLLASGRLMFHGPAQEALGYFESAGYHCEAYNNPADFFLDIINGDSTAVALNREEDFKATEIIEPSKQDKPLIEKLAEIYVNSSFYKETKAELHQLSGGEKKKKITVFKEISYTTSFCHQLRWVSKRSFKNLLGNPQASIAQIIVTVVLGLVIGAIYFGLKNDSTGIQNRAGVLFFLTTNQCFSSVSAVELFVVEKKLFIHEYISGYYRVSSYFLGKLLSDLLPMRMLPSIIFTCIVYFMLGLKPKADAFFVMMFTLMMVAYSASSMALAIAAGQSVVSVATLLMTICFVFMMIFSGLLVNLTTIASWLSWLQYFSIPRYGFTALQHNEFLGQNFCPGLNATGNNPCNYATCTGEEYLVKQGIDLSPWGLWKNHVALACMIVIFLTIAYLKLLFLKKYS
To be noted: cited from earlier work.

Data set [1] is described as follows: PK of single agents vs fixed dose combinations, single dose in healthy volunteers (Example 13). To be noted: mean ± SD; for Cmax: Arm 4: FDC01 (SMV 100 mg + ODV 50 mg spray dried with copovidone and poloxamers + Compound (III) 800 mg). The data set is classed as in vivo, human. The procedure:
SMV (100 mg), ODV (50 mg), and Compound (III) (800 mg) were administered as three different formulations or together as single doses in vivo to healthy volunteers. The arms of the study included: • Arm 1 (Reference Arm): Single oral doses of single agents, one SMV 100-mg capsule, one ODV 50-mg tablet as granule layered solid dispersion with copovidone and poloxamers, and two Compound (III) 400-mg tablets, administered together. • Arm 2: Single oral dose of fixed dose combination (FDC02): SMV 100 mg+ODV 50 mg as a spray dried solid dispersion with HPMC-AS L in a ratio ODV/HPMC-AS L 1/1 w/w+Compound (III) 800 mg • Arm 3: Single oral dose of fixed dose combination (FDC04): SMV 100 mg+ODV 50 mg as a spray dried solid dispersion with HPMC-AS L in a ratio ODV/HPMC-AS L 1/3 w/w+Compound (III) 800 mg • Arm 4: Single oral dose of fixed dose combination (FDC01): SMV 100 mg+ODV 50 mg as a spray dried solid dispersion with copovidone and poloxamers+Compound (III) 800 mg
PK parameters, including Cmax, tmax, AUClast, and AUC∞ were measured for Compound (III), ODV, SMV, and metabolites Compound A-1 and Compound A-3 for each Arm of the study. Arms that included fixed dose combinations (FDC) (Arm 2, Arm 3, and Arm 4) were then compared to a single oral dose (Arm 1, the reference Arm). Table 9, Table 10, Table 11, Table 12 and Table 13 display relevant PK parameters and FIG. 9, FIG. 10, FIG. 11, FIG. 12, and FIG. 13 depict the plasma concentration over time of SMV, ODV, Compound A-1, and Compound A-3 for each Arm of the study.

A further data set addresses T2, OATP1B1 (Homo sapiens, UniProt Q9Y6L6).
T2 sequence (Q9Y6L6 1-691): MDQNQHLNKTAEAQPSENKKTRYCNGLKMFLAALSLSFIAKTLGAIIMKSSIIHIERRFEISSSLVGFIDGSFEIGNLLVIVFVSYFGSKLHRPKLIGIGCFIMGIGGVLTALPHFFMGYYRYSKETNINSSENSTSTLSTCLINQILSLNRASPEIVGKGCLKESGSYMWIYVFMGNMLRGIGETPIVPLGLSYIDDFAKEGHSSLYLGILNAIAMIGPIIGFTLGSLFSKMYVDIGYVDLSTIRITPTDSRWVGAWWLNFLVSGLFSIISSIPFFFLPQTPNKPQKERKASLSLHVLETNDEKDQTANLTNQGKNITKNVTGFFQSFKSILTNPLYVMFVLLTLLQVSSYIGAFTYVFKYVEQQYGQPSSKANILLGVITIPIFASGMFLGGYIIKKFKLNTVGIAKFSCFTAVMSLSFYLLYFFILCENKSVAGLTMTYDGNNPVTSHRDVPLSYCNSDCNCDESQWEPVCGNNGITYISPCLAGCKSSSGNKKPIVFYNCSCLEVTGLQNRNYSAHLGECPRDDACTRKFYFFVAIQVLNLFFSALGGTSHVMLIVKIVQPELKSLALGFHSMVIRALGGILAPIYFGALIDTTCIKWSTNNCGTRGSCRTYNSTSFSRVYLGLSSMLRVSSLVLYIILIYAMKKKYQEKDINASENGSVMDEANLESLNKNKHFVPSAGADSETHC
To be noted: cited from earlier work.

Another data set addresses T3, OATP1B3 (Homo sapiens, UniProt Q9NPD5).
T3 sequence (Q9NPD5 1-702): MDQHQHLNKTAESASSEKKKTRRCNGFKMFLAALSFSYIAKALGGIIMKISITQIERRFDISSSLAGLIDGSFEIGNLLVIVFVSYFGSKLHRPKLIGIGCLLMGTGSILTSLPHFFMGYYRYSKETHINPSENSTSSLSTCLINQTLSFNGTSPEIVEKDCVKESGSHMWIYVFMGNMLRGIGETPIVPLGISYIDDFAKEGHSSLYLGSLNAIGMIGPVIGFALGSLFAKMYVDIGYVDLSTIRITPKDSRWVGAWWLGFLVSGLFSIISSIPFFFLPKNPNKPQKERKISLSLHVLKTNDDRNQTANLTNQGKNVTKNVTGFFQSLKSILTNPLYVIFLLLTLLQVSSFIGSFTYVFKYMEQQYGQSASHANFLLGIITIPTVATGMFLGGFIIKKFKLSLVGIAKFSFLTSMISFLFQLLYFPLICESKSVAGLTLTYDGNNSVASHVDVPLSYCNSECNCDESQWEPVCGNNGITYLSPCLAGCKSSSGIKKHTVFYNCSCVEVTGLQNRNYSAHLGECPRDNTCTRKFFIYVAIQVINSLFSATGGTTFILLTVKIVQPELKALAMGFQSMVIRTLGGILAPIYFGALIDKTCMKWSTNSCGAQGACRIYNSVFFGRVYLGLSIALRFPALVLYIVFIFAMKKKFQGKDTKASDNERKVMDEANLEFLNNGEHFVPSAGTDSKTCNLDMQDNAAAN
To be noted: cited from earlier work.

For a further data set, the system named is CYP. The data set is described as follows: CYP inhibition potential. The note with it: any CYP.
A short description of data set [2]: Phase-1 drug-drug interaction study of Odalasvir, Simeprevir and Compound (III) in healthy volunteers. The data set is classed as in vivo, human. The note with it: for increase of exposure caused by Odalasvir / increase of exposure caused by SMV: DDI study results. From the text: The following daily doses were employed:
Data set [3] can be described thus: Phase 2a open-label combination study, pharmacokinetics. The data set is classed as in vivo, human. To be noted: in vivo. Here is the method: A randomized, Phase 2a, open-label study was carried out to evaluate the safety, pharmacokinetics and efficacy of the combination of Compound (III), Odalasvir and Simeprevir in Genotype 1 treatment-naïve subjects with chronic hepatitis C. Other treatment-naïve subjects included Genotype 2, 3, 4, 5 and 6.
The aim of the study was to determine the efficacy, pharmacokinetics (PK), and safety of Compound (II)+Odalasvir±SMV in HCV-infected subjects.
This was an open-label study evaluating various dosing regimens of Compound (III)+Odalasvir±SMV for 6-8 weeks in treatment-nave HCV-infected subjects with varying clinical characteristics (e.g., GT 1 or 3, presence/absence of compensated Child Pugh A cirrhosis). Efficacy, PK and safety evaluations were conducted during and through 24 weeks post dosing. Up to 15 cohorts were enrolled; data was generated from cohorts that have completed dosing.

Setting [4] is: Arm 1 (reference): single agents.

In the case of `CC(C)OC(=O)[C@H](C)N[P@](=O)(OC[C@@]1(F)O[C@@H](n2ccc(=O)[nH]c2=O)[C@](C)(O)[C@@H]1O)Oc1ccccc1` [Compound (III), isopropyl ((S)-(((2S,3S,4R,5R)-5-(2,4-dioxo-3,4-dihydropyrimidin-1 (2H)-yl)-2-fluoro-3,4-dihydroxy-4-methyltetrahydrofuran-2-yl)methoxy)(phenoxy)phosphoryl)-L-alaninate], the “activity against genotype 3 in vitro” value in the data set on HCV genotype 3 is “effective”. In addition, the “in vitro inhibition of BCRP” value on BCRP is reported as “no in vitro inhibition”. Also, the t1/2term is listed as 0.6 ± 0.1 h in data set [1] (setting [4]), 0.7 ± 0.2 h in data set [1] (Arm 2: FDC02), 0.7 ± 0.1 h in data set [1] (Arm 3: FDC04) and 0.6 ± 0.1 h in data set [1] (Arm 4: FDC01). For the same compound, the “in vitro inhibition of OATP1B1” value on OATP1B1 is on record as “no in vitro inhibition”. The “in vitro inhibition of OATP1B3” value on OATP1B3 is recorded as “no in vitro inhibition”. In addition, the CYP inhibition potential result in the data set with CYP is reported as “limited”. Besides, the “increase of exposure caused by Odalasvir” value in data set [2] amounted to 4 ×. In addition, in data set [2], the “increase of exposure caused by SMV” value came to 3 ×. Further, in data set [2] (both, human, in vivo), the “bioavailability when SMV and ODV are co-administered with Compound (III), compared to Compound (III) alone” value is given as “approximately 8 fold”.
Turning to `C[C@]1(O)[C@H](n2ccc(=O)[nH]c2=O)O[C@](F)(CO)[C@H]1O` [Compound A-1], in data set [3], the “change of A-1 exposure on increasing the Compound (III) dose from 400 to 800 mg” value is “less than proportionally”. Moreover, in data set [1] (setting [4]), the t1/2term is 19.6 ± 2.7 h. Besides, in data set [1] (Arm 2: FDC02), the “AUC∞” value is 4369 ± 1345 ng·h/mL and the t1/2term is given as 20.5 ± 3.3 h. In addition, in data set [1] (Arm 3: FDC04), the AUClast came out at 4714 ± 1310 ng·h/mL and the t1/2term was determined as 20.2 ± 3.5 h. For the same compound, in data set [1], the Cmax is on record as 607 ± 208 ng/mL. For the same compound, in data set [1] (Arm 4: FDC01), the AUClast amounted to 4693 ± 1418 ng·h/mL, the “AUC∞” value was found to be 4555 ± 787 ng·h/mL and the t1/2term was determined as 18.3 ± 3.5 h. In data set [2], the “increase of exposure caused by Odalasvir” value is 1.5 × and the “increase of exposure caused by SMV” value is recorded as “no apparent effect”.
Take `C[C@H](NP(=O)(O)OC[C@@]1(F)O[C@@H](n2ccc(=O)[nH]c2=O)[C@](C)(O)[C@@H]1O)C(=O)O` [Compound A-3]: the t1/2term in data set [1] (setting [4]) was 2.6 ± 1.4 h; in data set [1] (Arm 2: FDC02) it was 2.3 ± 0.6 h; in data set [1] (Arm 3: FDC04), 2.9 ± 1.5 h; in data set [1] (Arm 4: FDC01) it was 2.5 ± 0.7 h. The AUClast in data set [1] (Arm 2: FDC02) was determined as 790 ± 157 ng·h/mL; in data set [1] (Arm 4: FDC01), 909 ± 244 ng·h/mL. Moreover, the results for the “AUC∞” value in data set [1] (Arm 2: FDC02) and in data set [1] (Arm 4: FDC01) were 817 ± 133 ng·h/mL and 926 ± 245 ng·h/mL, respectively. The Cmax in data set [1] is recorded as 197 ± 62.1 ng/mL. For the same compound, the “increase of exposure caused by Odalasvir” value in data set [2] is 2.6 ×. The “increase of exposure caused by SMV” value in data set [2] amounted to 1.6 ×.

By Cmax is commonly meant the peak of the concentration-time curve.
